Laboratory results reported in PubChem BioAssay (NCI).
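How tested: cells in 96-well plates exposed to compound for 48 hours at five concentrations. GI50 is the concentration that inhibits growth by half. TGI: concentration producing complete growth inhibition.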

How the values were obtained:
Assay in all cases: DTP human tumour cell line panel, 48 h; in the data active = GI50 below about 0.43 µM; inactive = the rest
TK-10 renal = tested on: TK-10 renal
ACHN renal = tested on: ACHN renal
MCF7 breast = tested on: MCF7 breast
KM12 colon = tested on: KM12 colon
CCRF-CEM leukemia = tested on: CCRF-CEM leukemia
UACC-257 melanoma = tested on: UACC-257 melanoma
SF-539 CNS = tested on: SF-539 CNS
A498 renal = tested on: A498 renal
DU-145 prostate = tested on: DU-145 prostate
SK-OV-3 ovarian = tested on: SK-OV-3 ovarian
MDA-MB-231 breast = tested on: MDA-MB-231 breast
HCT-15 colon = tested on: HCT-15 colon
SK-MEL-28 melanoma = tested on: SK-MEL-28 melanoma
RXF 393 renal = tested on: RXF 393 renal
NCI-H522 lung = tested on: NCI-H522 lung
SK-MEL-2 melanoma = tested on: SK-MEL-2 melanoma
MDA-MB-435 = tested on: MDA-MB-435
OVCAR-5 ovarian = tested on: OVCAR-5 ovarian
A549 NSCLC = tested on: A549 NSCLC
BT-549 breast = tested on: BT-549 breast
HCT-116 colon = tested on: HCT-116 colon
HCC-2998 colon = tested on: HCC-2998 colon
SF-268 CNS = tested on: SF-268 CNS
SK-MEL-5 melanoma = tested on: SK-MEL-5 melanoma
SNB-75 CNS = tested on: SNB-75 CNS
OVCAR-4 ovarian = tested on: OVCAR-4 ovarian
K-562 leukemia = tested on: K-562 leukemia
M14 melanoma = tested on: M14 melanoma
RPMI-8226 leukemia = tested on: RPMI-8226 leukemia
UACC-62 melanoma = tested on: UACC-62 melanoma
IGROV1 ovarian = tested on: IGROV1 ovarian
HS 578T breast = tested on: HS 578T breast
HL-60(TB) leukemia = tested on: HL-60(TB) leukemia
SN12C renal = tested on: SN12C renal
COLO 205 colon = tested on: COLO 205 colon
HOP-62 NSCLC = tested on: HOP-62 NSCLC
U251 CNS = tested on: U251 CNS
NCI-H226 lung = tested on: NCI-H226 lung
OVCAR-8 ovarian = tested on: OVCAR-8 ovarian
NCI-H460 lung = tested on: NCI-H460 lung
LOX IMVI melanoma = tested on: LOX IMVI melanoma
NCI/ADR-RES ovarian = tested on: NCI/ADR-RES ovarian
SR leukemia = tested on: SR leukemia
OVCAR-3 ovarian = tested on: OVCAR-3 ovarian
NCI-H23 lung = tested on: NCI-H23 lung
SW-620 colon = tested on: SW-620 colon
MALME-3M melanoma = tested on: MALME-3M melanoma
786-0 renal = tested on: 786-0 renal
CAKI-1 renal = tested on: CAKI-1 renal
HT29 colon = tested on: HT29 colon
HOP-92 NSCLC = tested on: HOP-92 NSCLC
SNB-19 CNS = tested on: SNB-19 CNS
UO-31 renal = tested on: UO-31 renal
SF-295 CNS = tested on: SF-295 CNS
PC-3 prostate = tested on: PC-3 prostate
MOLT-4 leukemia = tested on: MOLT-4 leukemia

COc1ccc(NC(=O)COc2ccccc2)c(C(N)=O)c1
> 50.3 µM: TGI (KM12 colon)
20.1 µM: TGI (U251 CNS)
2.88 µM: TGI (OVCAR-3 ovarian)
11.2 µM: TGI (SNB-75 CNS)
16.5 µM: TGI (SF-295 CNS)
> 87.3 µM: TGI (HCC-2998 colon)
> 83.2 µM: TGI (SK-MEL-2 melanoma)
> 62.2 µM: TGI (DU-145 prostate)
> 50.2 µM: TGI (SR leukemia)
8.38 µM: TGI (A498 renal)
> 76.2 µM: TGI (SK-MEL-5 melanoma)
inactive: GI50 (TK-10 renal) 18.3 µM | GI50 (ACHN renal) 2.98 µM | GI50 (MCF7 breast) 0.538 µM | GI50 (KM12 colon) 0.52 µM | GI50 (CCRF-CEM leukemia) 0.961 µM | GI50 (UACC-257 melanoma) > 100 µM | GI50 (SF-539 CNS) 0.506 µM | GI50 (A498 renal) 0.757 µM | GI50 (DU-145 prostate) 2.31 µM | GI50 (SK-OV-3 ovarian) 3.35 µM | GI50 (MDA-MB-231 breast) 1.91 µM | GI50 (HCT-15 colon) 0.523 µM | GI50 (SK-MEL-28 melanoma) 6.13 µM | GI50 (RXF 393 renal) 1.9 µM | GI50 (NCI-H522 lung) 0.812 µM | GI50 (SK-MEL-2 melanoma) 0.729 µM | GI50 (OVCAR-5 ovarian) 7.14 µM | GI50 (A549 NSCLC) 1.09 µM | GI50 (BT-549 breast) 0.621 µM | GI50 (HCT-116 colon) 0.588 µM | GI50 (HCC-2998 colon) 3.2 µM | GI50 (SF-268 CNS) 4.25 µM | GI50 (SK-MEL-5 melanoma) 1.11 µM | GI50 (OVCAR-4 ovarian) > 44.8 µM | GI50 (M14 melanoma) 0.499 µM | GI50 (RPMI-8226 leukemia) 1.93 µM | GI50 (UACC-62 melanoma) 1.18 µM | GI50 (IGROV1 ovarian) 4.71 µM | GI50 (HS 578T breast) 0.871 µM | GI50 (SN12C renal) 5.53 µM | GI50 (COLO 205 colon) 0.505 µM | GI50 (HOP-62 NSCLC) 1.07 µM | GI50 (U251 CNS) 0.742 µM | GI50 (NCI-H226 lung) 20.9 µM | GI50 (OVCAR-8 ovarian) 3.01 µM | GI50 (NCI-H460 lung) 0.605 µM | GI50 (LOX IMVI melanoma) 3.14 µM | GI50 (NCI/ADR-RES ovarian) 0.574 µM | GI50 (SR leukemia) 0.466 µM | GI50 (NCI-H23 lung) 2.61 µM | GI50 (SW-620 colon) 0.511 µM | GI50 (MALME-3M melanoma) 69 µM | GI50 (786-0 renal) 2.18 µM | GI50 (CAKI-1 renal) 1.09 µM | GI50 (HT29 colon) 0.43 µM | GI50 (HOP-92 NSCLC) 2.87 µM | GI50 (SNB-19 CNS) 1.9 µM | GI50 (UO-31 renal) 6.99 µM | GI50 (SF-295 CNS) 0.644 µM | GI50 (PC-3 prostate) 0.712 µM | GI50 (MOLT-4 leukemia) 2.67 µM
> 68.9 µM: TGI (SNB-19 CNS)
13.3 µM: TGI (NCI-H522 lung)
97.1 µM: TGI (HS 578T breast)
active: GI50 (MDA-MB-435) 0.156 µM | GI50 (SNB-75 CNS) 0.398 µM | GI50 (K-562 leukemia) 0.348 µM | GI50 (HL-60(TB) leukemia) 0.368 µM | GI50 (OVCAR-3 ovarian) 0.403 µM
> 56.7 µM: TGI (NCI-H460 lung)
13.5 µM: TGI (RXF 393 renal)
4.01 µM: TGI (SF-539 CNS)
> 81.2 µM: TGI (UACC-62 melanoma)
> 78 µM: TGI (HOP-92 NSCLC)
> 63 µM: TGI (MDA-MB-231 breast)
6.56 µM: TGI (COLO 205 colon)
35.5 µM: TGI (NCI-H23 lung)
> 75.1 µM: TGI (SF-268 CNS)
> 55.2 µM: TGI (RPMI-8226 leukemia)
11.9 µM: TGI (NCI/ADR-RES ovarian)
49.4 µM: TGI (786-0 renal)
43.4 µM: TGI (HOP-62 NSCLC)
0.845 µM: TGI (MDA-MB-435)
> 100 µM: TGI (TK-10 renal) | TGI (ACHN renal) | TGI (MCF7 breast) | TGI (CCRF-CEM leukemia) | TGI (UACC-257 melanoma) | TGI (SK-OV-3 ovarian) | TGI (HCT-15 colon) | TGI (SK-MEL-28 melanoma) | TGI (OVCAR-5 ovarian) | TGI (A549 NSCLC) | TGI (BT-549 breast) | TGI (HCT-116 colon) | TGI (OVCAR-4 ovarian) | TGI (K-562 leukemia) | TGI (M14 melanoma) | TGI (IGROV1 ovarian) | TGI (HL-60(TB) leukemia) | TGI (SN12C renal) | TGI (NCI-H226 lung) | TGI (OVCAR-8 ovarian) | TGI (LOX IMVI melanoma) | TGI (SW-620 colon) | TGI (MALME-3M melanoma) | TGI (CAKI-1 renal) | TGI (HT29 colon) | TGI (UO-31 renal) | TGI (PC-3 prostate) | TGI (MOLT-4 leukemia)
